How the values were obtained:
Assay type in all cases: cell-based
[1] = molecular target: T1, GLP-1R (Homo sapiens, UniProt P43220); assay: GLP-1 activity test (cAMP, chemiluminescence)
T1 construct: expressed in transfected cells; host or cells: CHO-K1
Procedure: (§1) Upon stimulation by a specific agonist, GLP-1R activates the intracellular adenylate cyclase signaling pathway, resulting in an increase in cAMP levels and ultimately leading to insulin production and secretion. A cell line stably transfected with GLP-1R was stimulated with test compounds, thereby rapidly increasing intracellular cAMP levels. The relative luminescence units (RLU) of cells stimulated at various concentrations were measured by a chemiluminescence method, and the EC50 value of the agonist was calculated accordingly. This activity test method is currently a commonly used method for evaluating GLP-1 receptor agonist activity both domestically and internationally. A CHO-K1 cell line stably expressing GLP-1R was used. The stable cells were stimulated with agonists at different concentrations, and the relative luminescence units after stimulation at each concentration were measured to calculate the EC50 value of the agonist.

[2] = molecular target: T2, GCG-R (Homo sapiens, UniProt P47871); assay: GCG activity test (cAMP, chemiluminescence)
T2 construct: expressed in transfected cells; host or cells: CHO-K1
Procedure: Upon stimulation by a specific agonist, GCG-R activates the intracellular adenylate cyclase signaling pathway, resulting in an increase in cAMP levels and ultimately leading to insulin production and secretion. A cell line stably transfected with GCG-R was stimulated with test compounds, thereby rapidly increasing intracellular cAMP levels. The relative luminescence units (RLU) of cells stimulated at various concentrations were measured by a chemiluminescence method, and the EC50 value of the agonist was calculated accordingly. This activity assay method is currently a commonly used method for evaluating GCG receptor agonist activity both domestically and internationally.
A CHO-K1 cell line stably expressing GCG-R was used. The stable cells were stimulated with agonists at different concentrations, and the relative luminescence units after stimulation at each concentration were measured to calculate the EC50 value of the agonist.

[3] = molecular target: T3, GIPR (Homo sapiens, UniProt P48546); assay: GIP activity test (cAMP, chemiluminescence)
T3 construct: expressed in transfected cells; host or cells: CHO-K1
T3 sequence (P48546 22-466): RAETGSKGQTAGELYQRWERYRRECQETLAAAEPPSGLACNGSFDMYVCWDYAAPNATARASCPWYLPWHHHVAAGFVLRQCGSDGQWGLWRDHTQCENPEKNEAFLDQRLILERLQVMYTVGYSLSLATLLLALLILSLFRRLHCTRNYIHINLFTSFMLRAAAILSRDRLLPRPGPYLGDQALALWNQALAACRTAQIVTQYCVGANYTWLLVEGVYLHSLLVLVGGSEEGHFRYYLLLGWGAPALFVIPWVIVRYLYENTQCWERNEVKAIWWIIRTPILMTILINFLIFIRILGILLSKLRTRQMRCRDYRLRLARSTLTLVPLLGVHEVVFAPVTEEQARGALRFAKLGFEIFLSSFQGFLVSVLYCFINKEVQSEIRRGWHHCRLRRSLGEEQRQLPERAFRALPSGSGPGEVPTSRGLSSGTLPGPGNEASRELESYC
Procedure: as §1, with “agonist, GIPR” for “agonist, GLP-1R”, “with GIPR” for “with GLP-1R”, “activity assay” for “activity test”, “evaluating GIP” for “evaluating GLP-1”, “expressing GIPR” for “expressing GLP-1R”

T1 sequence (P43220 24-463, species assumed): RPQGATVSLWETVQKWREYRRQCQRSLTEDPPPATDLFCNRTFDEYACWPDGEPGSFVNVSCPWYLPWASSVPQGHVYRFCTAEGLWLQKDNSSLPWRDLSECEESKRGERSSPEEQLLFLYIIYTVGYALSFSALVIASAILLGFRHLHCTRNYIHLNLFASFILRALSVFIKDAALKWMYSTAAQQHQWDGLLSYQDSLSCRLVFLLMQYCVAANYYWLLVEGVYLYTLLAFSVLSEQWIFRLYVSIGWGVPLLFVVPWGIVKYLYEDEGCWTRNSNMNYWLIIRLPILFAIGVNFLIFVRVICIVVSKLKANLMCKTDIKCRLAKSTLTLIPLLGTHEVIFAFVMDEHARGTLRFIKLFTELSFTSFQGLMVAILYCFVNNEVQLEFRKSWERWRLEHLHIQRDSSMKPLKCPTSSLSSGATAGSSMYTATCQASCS
T2 sequence (P47871 26-477, species assumed): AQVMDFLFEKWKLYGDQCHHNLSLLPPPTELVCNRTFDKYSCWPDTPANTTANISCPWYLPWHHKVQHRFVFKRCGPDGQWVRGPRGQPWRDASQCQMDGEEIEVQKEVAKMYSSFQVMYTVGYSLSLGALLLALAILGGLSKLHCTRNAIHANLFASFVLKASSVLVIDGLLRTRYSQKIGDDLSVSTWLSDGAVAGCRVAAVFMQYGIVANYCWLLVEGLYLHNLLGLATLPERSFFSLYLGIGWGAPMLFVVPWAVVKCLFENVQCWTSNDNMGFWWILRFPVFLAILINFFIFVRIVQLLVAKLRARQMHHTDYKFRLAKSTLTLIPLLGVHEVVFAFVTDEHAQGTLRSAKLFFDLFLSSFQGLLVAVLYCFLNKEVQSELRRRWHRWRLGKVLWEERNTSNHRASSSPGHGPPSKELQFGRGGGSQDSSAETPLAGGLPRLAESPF

| SMILES | EC50 [1] [nM] | EC50 [2] [nM] | EC50 [3] [nM] |
| --- | --- | --- | --- |
| CC[C@H](C)[C@H](NC(=O)[C@H](Cc1ccccc1)NC(=O)[C@H](C)NC(=O)C(C)(C)NC(=O)[C@H](CCC(N)=O)NC(=O)[C@H](C)NC(=O)[C@H](CCCCNC(=O)COCCOCCNC(=O)CCCC[C@H](NC(=O)CCCCCCCCCCCCCCCCCCC(=O)O)C(=O)O)NC(=O)[C@H](CCCCN)NC(=O)[C@H](CC(=O)O)NC(=O)[C@H](CC(C)C)NC(=O)C(C)(CC(C)C)NC(=O)[C@@H](NC(=O)[C@H](CO)NC(=O)[C@H](Cc1ccc(O)cc1)NC(=O)[C@H](CC(=O)O)NC(=O)[C@H](CO)NC(=O)[C@@H](NC(=O)C(C)(Cc1ccccc1F)NC(=O)[C@@H](NC(=O)CNC(=O)[C@H](CCC(N)=O)NC(=O)C(C)(C)NC(=O)[C@@H](N)Cc1ccc(O)cc1)[C@@H](C)O)[C@@H](C)O)[C@@H](C)CC)C(=O)N[C@@H](CCC(=O)O)C(=O)N[C@@H](Cc1ccc(O)cc1)C(=O)N[C@@H](CC(C)C)C(=O)N[C@@H](CC(C)C)C(=O)N[C@@H](CCC(=O)O)C(=O)NCCCCC(=O)N1CCC[C@H]1C(=O)N[C@@H](CO)C(=O)N[C@@H](CO)C(=O)NCC(=O)N[C@@H](C)C(=O)N1CCC[C@H]1C(=O)N1CCC[C@H]1C(=O)N1CCC[C@H]1C(=O)N[C@@H](CO)C(N)=O (stereo partly drawn) [Compound 7] | 0.0455 | 0.163 | 0.0246 |
| CC[C@H](C)[C@H](NC(=O)[C@H](Cc1ccccc1)NC(=O)[C@H](C)NC(=O)C(C)(C)NC(=O)[C@H](CCC(N)=O)NC(=O)[C@H](C)NC(=O)[C@H](CCCCNC(=O)COCCOCCNC(=O)COCCOCCNC(=O)CC[C@H](NC(=O)CCCCCCCCCCCCCCCCCCC(=O)O)C(=O)O)NC(=O)[C@H](CCCCN)NC(=O)[C@H](CC(=O)O)NC(=O)[C@H](CC(C)C)NC(=O)C(C)(CC(C)C)NC(=O)[C@@H](NC(=O)[C@H](CO)NC(=O)[C@H](Cc1ccc(O)cc1)NC(=O)[C@H](CC(=O)O)NC(=O)[C@H](CO)NC(=O)[C@@H](NC(=O)C(C)(Cc1ccccc1)NC(=O)[C@@H](NC(=O)CNC(=O)[C@H](CCC(N)=O)NC(=O)C(C)(C)NC(=O)[C@@H](N)Cc1ccc(O)cc1)[C@@H](C)O)[C@@H](C)O)[C@@H](C)CC)C(=O)N[C@@H](CCC(=O)O)C(=O)N[C@@H](Cc1ccc(O)cc1)C(=O)N[C@@H](CC(C)C)C(=O)N[C@@H](CC(C)C)C(=O)N[C@@H](CCC(=O)O)C(=O)NCCCCC(=O)N1CCC[C@H]1C(=O)N[C@@H](CO)C(=O)N[C@@H](CO)C(=O)NCC(=O)N[C@@H](C)C(=O)N1CCC[C@H]1C(=O)N1CCC[C@H]1C(=O)N1CCC[C@H]1C(=O)N[C@@H](CO)C(N)=O (stereo partly drawn) [Compound 9] | 0.0519 | 0.307 | 0.0268 |
| CC[C@H](C)[C@H](NC(=O)[C@H](Cc1ccccc1)NC(=O)[C@H](C)NC(=O)C(C)(C)NC(=O)[C@H](CCC(N)=O)NC(=O)[C@H](C)NC(=O)[C@H](CCCCNC(=O)COCCOCCOCCOCCOCCNC(=O)CC[C@H](NC(=O)CCCCCCCCCCCCCCCCCCC(=O)O)C(=O)O)NC(=O)[C@H](CCCCN)NC(=O)[C@H](CC(=O)O)NC(=O)[C@H](CC(C)C)NC(=O)C(C)(CC(C)C)NC(=O)[C@@H](NC(=O)[C@H](CO)NC(=O)[C@H](Cc1ccc(O)cc1)NC(=O)[C@H](CC(=O)O)NC(=O)[C@H](CO)NC(=O)[C@@H](NC(=O)C(C)(Cc1ccccc1F)NC(=O)[C@@H](NC(=O)CNC(=O)[C@H](CCC(N)=O)NC(=O)C(C)(C)NC(=O)[C@@H](N)Cc1ccc(O)cc1)[C@@H](C)O)[C@@H](C)O)[C@@H](C)CC)C(=O)N[C@@H](CCC(=O)O)C(=O)N[C@@H](Cc1ccc(O)cc1)C(=O)N[C@@H](CC(C)C)C(=O)N[C@@H](CC(C)C)C(=O)N[C@@H](CCC(=O)O)C(=O)NCCCCC(=O)N1CCC[C@H]1C(=O)N[C@@H](CO)C(=O)N[C@@H](CO)C(=O)NCC(=O)N[C@@H](C)C(=O)N1CCC[C@H]1C(=O)N1CCC[C@H]1C(=O)N1CCC[C@H]1C(=O)N[C@@H](CO)C(N)=O (stereo partly drawn) [Compound 12] | 0.0469 | 0.165 | 0.0243 |
| CC[C@H](C)[C@H](NC(=O)[C@H](Cc1ccccc1)NC(=O)[C@H](C)NC(=O)C(C)(C)NC(=O)[C@H](CCC(N)=O)NC(=O)[C@H](C)NC(=O)[C@H](CCCCNC(=O)COCCOCCNC(=O)CC[C@H](NC(=O)CCCCCCCCCCCCCCCCCCC(=O)O)C(=O)O)NC(=O)[C@H](CCCCN)NC(=O)[C@H](CC(=O)O)NC(=O)[C@H](CC(C)C)NC(=O)C(C)(CC(C)C)NC(=O)[C@@H](NC(=O)[C@H](CO)NC(=O)[C@H](Cc1ccc(O)cc1)NC(=O)[C@H](CC(=O)O)NC(=O)[C@H](CO)NC(=O)[C@@H](NC(=O)C(C)(Cc1ccccc1)NC(=O)[C@@H](NC(=O)CNC(=O)[C@H](CCC(N)=O)NC(=O)C(C)(C)NC(=O)[C@@H](N)Cc1ccc(O)cc1)[C@@H](C)O)[C@@H](C)O)[C@@H](C)CC)C(=O)N[C@@H](CCC(=O)O)C(=O)N[C@@H](Cc1ccc(O)cc1)C(=O)N[C@@H](CC(C)C)C(=O)N[C@@H](CC(C)C)C(=O)N[C@@H](CCC(=O)O)C(=O)NCCCCC(=O)N1CCC[C@H]1C(=O)N[C@@H](CO)C(=O)N[C@@H](CO)C(=O)NCC(=O)N[C@@H](C)C(=O)N1CCC[C@H]1C(=O)N1CCC[C@H]1C(=O)N1CCC[C@H]1C(=O)N[C@@H](CO)C(N)=O (stereo partly drawn) [Compound 1] | 0.045 | 0.271 | 0.0244 |
| CC[C@H](C)[C@H](NC(=O)[C@H](Cc1ccccc1)NC(=O)[C@H](C)NC(=O)C(C)(C)NC(=O)[C@H](CCC(N)=O)NC(=O)[C@H](C)NC(=O)[C@H](CCCCNC(=O)COCCOCCNC(=O)CCCC[C@H](NC(=O)CCCCCCCCCCCCCCCCCCC(=O)O)C(=O)O)NC(=O)[C@H](CCCCN)NC(=O)[C@H](CC(=O)O)NC(=O)[C@H](CC(C)C)NC(=O)C(C)(CC(C)C)NC(=O)[C@@H](NC(=O)[C@H](CO)NC(=O)[C@H](Cc1ccc(O)cc1)NC(=O)[C@H](CC(=O)O)NC(=O)[C@H](CO)NC(=O)[C@@H](NC(=O)C(C)(Cc1ccccc1)NC(=O)[C@@H](NC(=O)CNC(=O)[C@H](CCC(N)=O)NC(=O)C(C)(C)NC(=O)[C@@H](N)Cc1ccc(O)cc1)[C@@H](C)O)[C@@H](C)O)[C@@H](C)CC)C(=O)N[C@@H](CCC(=O)O)C(=O)N[C@@H](Cc1ccc(O)cc1)C(=O)N[C@@H](CC(C)C)C(=O)N[C@@H](CC(C)C)C(=O)N[C@@H](CCC(=O)O)C(=O)NCCCCC(=O)N1CCC[C@H]1C(=O)N[C@@H](CO)C(=O)N[C@@H](CO)C(=O)NCC(=O)N[C@@H](C)C(=O)N1CCC[C@H]1C(=O)N1CCC[C@H]1C(=O)N1CCC[C@H]1C(=O)N[C@@H](CO)C(N)=O (stereo partly drawn) [Compound 3] | 0.0452 | 0.283 | 0.0267 |
| CC[C@H](C)[C@H](NC(=O)[C@H](Cc1ccccc1)NC(=O)[C@H](C)NC(=O)C(C)(C)NC(=O)[C@H](CCC(N)=O)NC(=O)[C@H](C)NC(=O)[C@H](CCCCNC(=O)COCCOCCNC(=O)CCCCC[C@H](NC(=O)CCCCCCCCCCCCCCCCCCC(=O)O)C(=O)O)NC(=O)[C@H](CCCCN)NC(=O)[C@H](CC(=O)O)NC(=O)[C@H](CC(C)C)NC(=O)C(C)(CC(C)C)NC(=O)[C@@H](NC(=O)[C@H](CO)NC(=O)[C@H](Cc1ccc(O)cc1)NC(=O)[C@H](CC(=O)O)NC(=O)[C@H](CO)NC(=O)[C@@H](NC(=O)C(C)(Cc1ccccc1)NC(=O)[C@@H](NC(=O)CNC(=O)[C@H](CCC(N)=O)NC(=O)C(C)(C)NC(=O)[C@@H](N)Cc1ccc(O)cc1)[C@@H](C)O)[C@@H](C)O)[C@@H](C)CC)C(=O)N[C@@H](CCC(=O)O)C(=O)N[C@@H](Cc1ccc(O)cc1)C(=O)N[C@@H](CC(C)C)C(=O)N[C@@H](CC(C)C)C(=O)N[C@@H](CCC(=O)O)C(=O)NCCCCC(=O)N1CCC[C@H]1C(=O)N[C@@H](CO)C(=O)N[C@@H](CO)C(=O)NCC(=O)N[C@@H](C)C(=O)N1CCC[C@H]1C(=O)N1CCC[C@H]1C(=O)N1CCC[C@H]1C(=O)N[C@@H](CO)C(N)=O (stereo partly drawn) [Compound 4] | 0.0554 | 0.286 | 0.031 |
